Experiments:
[1] = target: T1, porcine microtubule protein (tubulin plus microtubule-associated proteins) (Sus scrofa, UniProt P02554); assay: Test-compound-induced polymerisation of porcine microtubule protein (inhibition of microtubule depolymerisation); type: biochemical, pig; conditions: test compound 4 uM, porcine microtubule protein (Batch #9) 0.8 mg/ml; 25 μM epothilone B = 100% polymerization, vehicle = 0%
T1 construct: extracted from pigs' brain by two cycles of temperature-dependent depolymerisation/polymerisation; from tissue; host or cells: pig brain
Protocol: Stock solutions of the test compounds (10 mM) are prepared in DMSO and stored at −20° C. […] The degree of test-compound-induced polymerisation of porcine microtubule protein is determined basically as already known (see Lin et al., Cancer Chem. Pharm. 1996; 38:136-140). To summarise, a working aliquot of porcine microtubule protein is rapidly thawed and then diluted to 2× final desired concentration in ice-cold 2× MEM buffer (200 ml MES, 2 mM EGTA, 2 mM MgCl2, pH 6.7) [MES=2-morpholinoethanesulphonic acid, EGTA=ethylene glycol-bis-2(2-aminoethyl)-tetraacetic acid]. Drug or vehicle (DMSO, final concentration 5%) is diluted in water at room temperature to 2× the final desired concentration in a 0.5 ml eppendorf tube, and then put on ice. Following addition of an equal volume (50 μl) of microtubule protein (2× final desired concentration in 2× MEM buffer), the polymerization reaction is started by transferring the incubation mixtures to a room-temperature water bath for 5 min. The reaction mixtures are then placed in an Eppendorf microcentrifuge (model 5415 C) and incubated for an additional 15 min at room temperature. The samples are then centrifuged for 15 min at 14,000 rpm at room temperature. As an indirect measure for microtubule protein polymerization, the protein concentration of the supernatant (containing the remainder of non-polymerized, soluble microtubule protein) is determined by the Lowry method (DC Assay Kit, Bio-Rad Laboratories, Hercules, Calif.) and the optical density of the colour reaction is measured at 750 nm with a SpectraMax 340 photometer (Molecular Devices, Sunnydale, Calif.). […] Vehicle-treated samples serve as negative control (0% polymerization).
Final assay concentrations of test compound and porcine microtubule protein (Batch #9) were 4 uM and 0.8 mg/ml, respectively.

[2] = system: KB-8511 (multidrug-resistant, P-gp170 overexpressing) epidermoid carcinoma cells; assay: Cell growth inhibition, multidrug-resistant KB-8511 epidermoid carcinoma cells (methylene blue staining); type: cell-based, human; conditions: KB-8511 cells (P-gp170 overexpressing), 4 days incubation with compound
Protocol: (§1) Stock solutions of the test compounds (10 mM) are prepared in DMSO and stored at −20° C. Human KB-31 and (multidrug-resistant, P-gp170 overexpressing) KB-8511 epidermoid carcinoma cells originate from Dr. M. Baker, Roswell Park Memorial institute (Buffalo, N.Y., USA) (description: see also Akiyama et al., Somat. Cell. Mol. Genetics 11, 117-126 (1985) and Fojo A., et al., Cancer Res. 45, 3002-3007 (1985) -KB-31 and KB-8511 are both derivatives of the KB cell line (ATCC). KB 31 cells may be cultivated in monolayers using RPMI-1640 medium (Amimed, BioConcept, Allschwil, Switzerland) with 10% foetal calf serum (Amimed, BioConcept, Allschwil, Switzerland), L-glutamine (Amimed, BioConcept, Allschwil, Switzerland), penicillin (50 units/ml) and streptomycin (50 μg/ml (Amimed, BioConcept, Allschwil, Switzerland). KB-8511 is a variant derived from the KB-31 cell line, which was obtained using colchichine treatment cycles, and has an approximately 40 times relative resistance to colchichine compared with KB-31 cells (Akiyama et al., Somat. Cell. Mol. Genetics 11, 117-126 (1985) and Fojo A., et al., Cancer Res. 45, 3002-3007 (1985)). The cells are incubated at 37° C. in an incubator with 5% v/v CO2 and at 80% relative humidity with RPMI-1640 medium complemented as described above. The cells are seeded in a quantity of 1.5×10^3 cells/well in 96-well microtitre plates, and incubated over night. Serial dilutions of the test compounds in culture medium are added on day 1. The plates are then incubated for a further 4 days, after which the cells are fixed with 3.3% v/v glutaraldehyde, washed with water and dyed with 0.05% w/v methylene blue. After washing, the dye is eluted with 3% HCl and the optical density measured at 665 nm with a SpectraMax 340 (Molecular Devices, Sunnyvale, Calif.). IC50 values are determined by adaptation of mathematical curves, using the SoftProprogramme (Version 2.0 or later; Molecular Devices, Sunnyvale, Calif.) and using the formula [(OD treated)−(OD start)]/[(OD control)−(OD start)]×100. […]

[3] = system: KB-31 epidermoid carcinoma cells; assay: Cell growth inhibition, KB-31 epidermoid carcinoma cells (methylene blue staining); type: cell-based, human; conditions: KB-31 cells, 4 days incubation with compound
Protocol: as §1

T1 sequence (P02554 whole entry): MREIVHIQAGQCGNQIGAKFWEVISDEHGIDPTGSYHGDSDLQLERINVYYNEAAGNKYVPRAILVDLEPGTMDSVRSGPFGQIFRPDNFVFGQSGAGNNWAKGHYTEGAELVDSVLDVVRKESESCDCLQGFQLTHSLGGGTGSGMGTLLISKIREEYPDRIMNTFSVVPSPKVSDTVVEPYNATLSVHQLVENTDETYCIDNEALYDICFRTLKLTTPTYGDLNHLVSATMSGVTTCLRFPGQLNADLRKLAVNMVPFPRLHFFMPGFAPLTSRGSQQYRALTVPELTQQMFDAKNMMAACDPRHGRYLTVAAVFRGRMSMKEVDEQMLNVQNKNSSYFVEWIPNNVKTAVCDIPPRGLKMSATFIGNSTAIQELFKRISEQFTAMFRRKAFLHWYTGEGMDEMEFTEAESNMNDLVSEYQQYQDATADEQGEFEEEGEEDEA
T1 sequence (P02550 whole entry partner): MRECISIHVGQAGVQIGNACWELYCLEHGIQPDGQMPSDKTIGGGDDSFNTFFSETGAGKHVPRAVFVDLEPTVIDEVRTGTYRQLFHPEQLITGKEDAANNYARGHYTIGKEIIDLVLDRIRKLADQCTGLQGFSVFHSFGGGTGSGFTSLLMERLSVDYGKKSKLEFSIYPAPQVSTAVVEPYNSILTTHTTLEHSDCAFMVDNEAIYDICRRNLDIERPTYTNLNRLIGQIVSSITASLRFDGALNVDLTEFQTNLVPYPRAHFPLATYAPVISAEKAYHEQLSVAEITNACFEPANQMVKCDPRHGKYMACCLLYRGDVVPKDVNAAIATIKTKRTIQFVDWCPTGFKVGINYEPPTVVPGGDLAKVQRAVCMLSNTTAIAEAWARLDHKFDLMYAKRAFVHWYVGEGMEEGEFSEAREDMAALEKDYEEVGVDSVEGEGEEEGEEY

Compound	Tubulin Polymerisation (% of control) [1]	IC50 [2] [nM]	IC50 [3] [nM]	IC50 ([2]; Homo sapiens, 96 h) [nM]	IC50 ([3]; Homo sapiens, KB 3-1, 96 h) [nM]
C/C(=C\c1csc(C)n1)[C@@H]1C[C@@H]2O[C@@H]2CCC[C@H](C)[C@H](O)[C@@H](C)C(=O)C(C)(C)[C@@H](O)CC(=O)O1 [Epothilone A]	76.5 % of control	–	–	–	–
C/C(=C\c1csc(C)n1)[C@@H]1C[C@@H]2O[C@]2(C)CCC[C@H](C)[C@H](O)[C@@H](C)C(=O)C(C)(C)[C@@H](O)CC(=O)O1 [Epothilone B]	93.3 % of control	0.2 ± 0.04	0.28 ± 0.04	–	–
C/C(=C\c1csc(C)n1)C1CC2OC2(C)CCCC(C)C(O)C(C)C(=O)C(C)C(O)CC(=O)O1 (stereo not drawn) [Example 1, C4-Desmethyl-Epothilone B]	93.3 % of control	0.8 ± 0.16	0.49 ± 0.05	–	–
CC(=O)O[C@H]1C(=O)[C@@]2(C)[C@H]([C@H](OC(=O)c3ccccc3)[C@]3(O)C[C@H](OC(=O)[C@H](O)[C@@H](NC(=O)c4ccccc4)c4ccccc4)C(C)=C1C3(C)C)[C@]1(OC(C)=O)CO[C@@H]1C[C@@H]2O [Paclitaxel]	–	–	–	739 ± 86	3.76 ± 0.52
